Data set [1] deals with HeLa cells. The experiment in a line: Photo-activatable fluorescence imaging under 405 nm laser in HeLa cells. Type of data set: cell-based. The conditions noted are these: in-situ generated compound.
Data set [2] relates to MCF-7 cells. The experiment in a line: Photo-activatable fluorescence imaging under 405 nm laser in MCF-7 cells. Type of data set: cell-based. The conditions noted are these: in-situ generated compound.
In data set [3] the test system is HeLa cells or MCF-7 cells. The experiment in a line: Co-dyeing experiments with commercial organelle dyes. In kind it is cell-based. The following applies: co-dyeing with Nile Red, BODIPY493/503 or LysoTracker Red.
For data set [4], the system named is HeLa cells. Nature of the data set: Photo-controlled high-spatiotemporal-resolution imaging, 780 nm two-photon laser, multicellular environment. Type of data set: cell-based. The conditions noted are these: under photo-control. The text has this: In-situ generated compound III could be used for photo-controlled high-spatiotemporal-resolution imaging. […] The photo-controlled high-spatiotemporal-resolution imaging capability of in-situ generated compound III was particularly useful for monitoring the movement of organelles and studying the physiological functions of organelles in complex physiological environments.

Data set [5] can be described thus: Quantum yield, fluorescence lifetime, absorption and emission in tetrahydrofuran solution and solid (thin film) state. The following applies: for Increase in fluorescence lifetime / Increase in quantum yield: thin film state relative to tetrahydrofuran solution. In kind it is physicochemical. The text has this: By measuring the quantum yield and fluorescence lifetime of compounds IV-1 (method 2-compound IV-1), IV-2 (method 2-compound IV-2) and IV-3 (method 2-compound IV-3) in tetrahydrofuran solution and solid state (thin film state)) (Table 1), the following results were found relative to the cases in the tetrahydrofuran solution: compound IV-1 in the thin film state increased by 94.4 times in the quantum yield, and increased by 6.0 times in the fluorescence lifetime; compound IV-2 in the thin film state increased by 33.4 times in the quantum yield, and increased by 5.2 times in the fluorescence lifetime; compound IV-3 in the thin film state increased by 25.8 times in the quantum yield, and increased by 4.1 times in the fluorescence lifetime; therefore, the aggregation-induced emission property of compound IV was confirmed. […] The in-situ compounds IV-1 to IV-3 also had the photophysical properties in Table 1.

The nature of data set [6]: Fluorescence emission in tetrahydrofuran/water or tetrahydrofuran/toluene mixed solutions (aggregation-induced emission). Type of data set: physicochemical. The following applies: tetrahydrofuran:water (IV-1 509 nm, IV-2 570 nm) or tetrahydrofuran:toluene (IV-3 532 nm), 10^−5 mol/L. The text has this: Mixing tetrahydrofuran and water according to different volume ratios (tetrahydrofuran:water=100:0, 90:10, 80:20, 70:30, 60:40, 50:50, 40:60, 30:70, 20:80, 10:90, 8:92, 6:94, 4:96, 2:98, 1:99) to form mixed solutions with different water contents; dissolving compound IV-1 (i.e., method 2-compound IV-1) into these mixed solutions to make the concentration of the compound at […], and then detecting the fluorescence emission spectrum, with the results as shown in FIG. 1.
Mixing tetrahydrofuran and water according to different volume ratios (tetrahydrofuran:water=100:0, 90:10, 80:20, 70:30, 60:40, 50:50, 40:60, 30:70, 20:80, 10:90, 8:92, 6:94, 4:96, 2:98, 1:99) to form mixed solutions with different water contents; dissolving compound IV-2 (i.e., method 2-compound IV-2) into these mixed solutions to make the concentration of the compound at […], and then detecting the fluorescence emission spectrum, with the results as shown in FIG. 2.
The in-situ generated compound IV-2 (in-situ compound IV-2) had the same photophysical properties as method 2-compound IV-2.
Mixing tetrahydrofuran and toluene according to different volume ratios (tetrahydrofuran:toluene=100:0, 90:10, 80:20, 70:30, 60:40, 50:50, 40:60, 30:70, 20:80, 10:90, 5:95, 1:99) to form mixed solutions with different toluene contents; dissolving compound IV-3 (i.e., method 2-compound IV-3) into these mixed solutions to make the concentration of the compound at […], and then detecting the fluorescence emission spectrum, with the results as shown in FIG. 3.
The in-situ generated compound IV-3 (in-situ compound IV-3) had the same photophysical properties as method 2-compound IV-3.

Setting [7] is: tetrahydrofuran solution state (10^−5 mol/L).

With `Oc1ccccc1C1Nc2ccccc2S1` (centres unmarked) [Compound III-1, 2-(2,3-dihydrobenzo[d]thiazol-2-yl)phenol], the Fluorescence intensity increase entry is listed as “approximately 5.5 times of the initial value” in data set [1] (irradiation time 10 min) and ~9.0 times of the initial value in data set [2] (irradiation time 10 min). In addition, in data set [3], the “Organelle specificity of photo-activatable fluorescence imaging” value (“Organelle specificity” below) was “lipid droplet specific photo-activatable fluorescence imaging”.
As to `COc1ccc(O)c(C2Nc3ccccc3S2)c1` (centres unmarked) [Compound III-2, 2-(2,3-dihydrobenzo[d]thiazol-2-yl)-4-methoxyphenol], the Fluorescence intensity increase entry in data set [1] (irradiation time 10 min) is recorded as “approximately 53 times of the initial value”; in data set [2] (irradiation time 10 min) it was ~18 times of the initial value. Besides, the “Organelle specificity” value in data set [3] is “lipid droplet specific photo-activatable fluorescence imaging”. Besides, the “Photo-controlled sequential activation of organelles in different cells” value in data set [4] is listed as “could sequentially activate lipid droplets in different cells”.
With `Oc1ccc(CN2CCOCC2)cc1C1Nc2ccccc2S1` (centres unmarked) [Compound III-3, 2-(2,3-dihydrobenzo[d]thiazol-2-yl)-4-(morpholinomethyl)phenol], the Fluorescence intensity increase entry in data set [1] (scanning time 50 s) is listed as “approximately 6.2 times of the initial value”; in data set [2] (scanning time 50 s) it was ~4.5 times of the initial value. Moreover, in data set [3], the “Organelle specificity” value is on record as “lysosomal specific photo-activatable fluorescence imaging”. In addition, the “Photo-controlled sequential activation of organelles in different cells” value in data set [4] is reported as “could sequentially activate lysosomes in different cells”.
In data set [5] (solid state), `Oc1ccccc1-c1nc2ccccc2s1` [Compound IV-1, 2-(benzo[d]thiazol-2-yl)phenol] gave an Emission wavelength of 509 nm, a Fluorescence lifetime of 4.96 ns and a Quantum yield of 66.1%. In data set [5] (setting [7]), this compound showed an Absorption wavelength of 334 nm, an Emission wavelength of 452 nm, a Fluorescence lifetime of 0.83 ns and a Quantum yield of 0.7%. Moreover, in data set [5], the “Increase in fluorescence lifetime” value came out at 6.0 times and the “Increase in quantum yield” value is given as 94.4 times. The “Ketoluminescence behaviour with increasing poor-solvent content” value in data set [6] is given as “showing the aggregation-induced emission property”.
In data set [5] (solid state), `COc1ccc(O)c(-c2nc3ccccc3s2)c1` [Compound IV-2, 2-(benzo[d]thiazol-2-yl)-4-methoxyphenol] showed an Emission wavelength of 570 nm, a Fluorescence lifetime of 4.88 ns and a Quantum yield of 40.1%. In data set [5] (setting [7]), the Absorption wavelength turned out to be 362 nm, the Emission wavelength worked out at 402 nm, the Fluorescence lifetime is 0.94 ns and the Quantum yield is on record as 1.2%. Besides, in data set [5], the “Increase in fluorescence lifetime” value was 5.2 times and the “Increase in quantum yield” value was determined as 33.4 times. The “Ketoluminescence behaviour with increasing poor-solvent content” value in data set [6] is on record as “showing the aggregation-induced emission property”.
In data set [5] (solid state), `Oc1ccc(CN2CCOCC2)cc1-c1nc2ccccc2s1` [Compound IV-3, 2-(benzo[d]thiazol-2-yl)-4-(morpholinomethyl)phenol] came in with an Emission wavelength of 532 nm, a Fluorescence lifetime of 6.39 ns and a Quantum yield of 28.4%. For the same compound, in data set [5] (setting [7]), the Absorption wavelength stood at 341 nm, the Emission wavelength amounted to 445 nm, the Fluorescence lifetime was found to be 1.56 ns and the Quantum yield stood at 1.1%. For the same compound, in data set [5], the “Increase in fluorescence lifetime” value turned out to be 4.1 times and the “Increase in quantum yield” value was 25.8 times. For the same compound, the “Ketoluminescence behaviour with increasing poor-solvent content” value in data set [6] was “showing the aggregation-induced emission property”.

Values taken from patent US12152010B2, “Preparation method for photo-activatable aggregation-induced emission probe with in-situ generation capability” (South China University of Technology, priority 2018, dated 2024).
